Series [1] deals with human RBC. Nature of the series: Hemolysis of RBC. It is filed as cell-based. As for the experimental part: Varying amounts of peptide were incubated with the washed RBC for one hour at room temperature. Intact cells were pelleted by gentle centrifugation, and hemolysis of each sample was determined by absorption measurement at 450 nm. A positive control sample consisted of RBC lysed by the addition of 0.1% Triton, for which hemolysis was also determined by absorption measurement at 450 nm. Percentages of lysed RBC incubated with peptide were then calculated by the ratio of absorbances at 450 nm for the sample relative to the absorbance at 450 nm of the positive control sample. The MHC10 value was calculated as the minimum peptide concentration to induce 10% cell lysis.

The test system of series [2] is Jurkat cells. Kind of series: Cytotoxicity against Jurkat cells (CellTiter Blue). Format: cell-based, human. As for the experimental part: (§1) The cytotoxicities of selected peptides against human T-lymphocytes, in particular Jurkat cells, was determined by growing 100 uL Jurkat cells in RPMI (approx. 5×10^5 cells/ml density) overnight at 37° C. under 5% CO2 atmosphere, in microtiter plate wells, in the presence and absence of peptides. Control reactions either lacked peptide (negative cytotoxicity control), or contained a buffer to completely lyse Jurkat cells (positive cytotoxicity control). The viabilities of cells were then determined by addition of 20 uL CellTiter Blue dye (Promega) to each well, and incubation of cells for a further 3 hrs at 37° C. Fluorescence values were measured for 1 sec at 540 nm/615 nm, and expressed relative to fluorescence values for negative and positive cytotoxicity control samples. Comparison with a fully lysed control allowed the calculation of a percentage killing for each peptide concentration. The MCC10 value was calculated as the minimum peptide concentration required to induce 10% cytotoxicity.

The nature of series [3]: Cytotoxicity against Jurkat cells (CellTiter Blue). Format: cell-based, human. The note with it: human. As for the experimental part:
as §1

In series [4] the test system is A. baumannii. Format: cell-based. The procedure, abridged:
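Laboratory strains and 50 clinical isolates of A. baumannii were tested by CLSI broth microdilution, with serially diluted peptide (0.1-64 μg) and about 1×10^5 C.F.U. per well, incubated aerobically overnight at 35±2° C. MIC was read visually. MBC came from subculturing clear wells, as ≥99.9% inoculum reduction.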

Values after ≈ are worked out from the molar mass of the structure shown. Peptide text beside a SMILES is read from it. * marks the point of attachment. Biotin = O=C1N[C@H]2[C@H](CS[C@H]2CCCCC(=O)*)N1

In the case of `CC[C@H](C)[C@H](NC(=O)[C@H](C)NC(=O)[C@H](CC(N)=O)NC(=O)[C@H](CS)NC(=O)[C@H](CS)NC(=O)CCCC[C@@H]1SC[C@@H]2NC(=O)N[C@@H]21)C(=O)N[C@H](C(=O)N[C@@H](Cc1ccc(O)cc1)C(=O)N[C@@H](CCCCN)C(=O)N[C@@H](Cc1c[nH]c2ccccc12)C(=O)N[C@H](C(=O)N[C@@H](CC(C)C)C(=O)N[C@@H](Cc1c[nH]cn1)C(=O)N[C@@H](Cc1ccccc1)C(=O)N[C@@H](Cc1ccccc1)C(=O)N[C@@H](Cc1c[nH]c2ccccc12)C(=O)N[C@@H](CCCNC(=N)N)C(=O)N[C@@H](CCCCN)C(=O)N[C@@H](CCCNC(=N)N)C(=O)N[C@@H](C)C(=O)N[C@@H](Cc1c[nH]c2ccccc12)C(=O)N[C@@H](Cc1ccc(O)cc1)C(=O)N[C@@H](CS)C(=O)N[C@@H](Cc1ccccc1)C(=O)O)[C@@H](C)CC)[C@@H](C)CC` [Ac228] (Biotin-CCNAIIYKWILHFFWRKRAWYCF-OH; N-terminus and C-terminus assumed), in series [1], the MHC10 was roughly 10 µM and the “haemolytic activity (in words)” value was “reproducibly higher haemolytic activities”. The “Percent hemolysis at 5 μM peptide” value in series [1] (red cells of human, 5) is recorded as 2.6%. In addition, in series [1] (red cells of human, 10), the “Percent hemolysis at 10 μM peptide” value turned out to be 11.0%. Also, the “Percent hemolysis at 20 μM peptide” value in series [1] (red cells of human, 20) was determined as 9.9%. Moreover, the “Percent hemolysis at 40 μM peptide” value in series [1] (red cells of human, 40) came to 22.9%. Besides, the “Percent hemolysis at 60 μM peptide” value in series [1] (red cells of human, 60) is recorded as 40.1%. In addition, in series [1] (red cells of human, 80), the “Percent hemolysis at 80 μM peptide” value is 80.4%. In series [1] (red cells of human, 1 h, 100), the “Percent hemolysis at 100 μM peptide” value amounted to 97.1%. This molecule displayed an MCC10 in series [2] of 42 µM. For the same molecule, in series [3], the cytotoxicity at 12.5 μM turned out to be 0%, the cytotoxicity at 25 μM is 5% and the cytotoxicity at 50 μM was found to be 29%. In series [4], the “MIC” value was 25 µM (≈ 82.4 µg/mL), the “MIC (μM) for non-amidated Peptide” value was 20 to 25 µM and the “bactericidal or bacteriostatic against A. baumannii” value is “bacteriostatic”. For the same molecule, the “MBC (μM)” value in series [4] (A. baumannii (Table 8), reduces original inoculum by at least about 99.9%) is “bacteriostat”.

`CC[C@H](C)[C@H](NC(=O)[C@@H]1CCCN1C(=O)CCCC[C@@H]1SC[C@@H]2NC(=O)N[C@@H]21)C(=O)N1CCC[C@H]1C(=O)N[C@@H](Cc1ccccc1)C(=O)N[C@@H](Cc1ccccc1)C(=O)N[C@@H](CC(N)=O)C(=O)N[C@@H](CCCNC(=N)N)C(=O)N[C@H](C(=O)NCC(=O)N[C@@H](Cc1ccccc1)C(=O)N[C@@H](Cc1ccccc1)C(=O)N[C@@H](CS)C(=O)N[C@@H](CC(C)C)C(=O)N1CCC[C@H]1C(=O)N[C@@H](CCCCN)C(=O)N[C@@H](CC(N)=O)C(=O)N[C@@H](CC(C)C)C(=O)N[C@@H](CCCCN)C(=O)N[C@@H](CCCNC(=N)N)C(=O)N[C@@H](CO)C(=O)N[C@@H](CCCCN)C(=O)N[C@@H](Cc1ccccc1)C(=O)N[C@@H](CS)C(=O)O)[C@@H](C)O` [Ac322] (Biotin-PIPFFNRTGFFCLPKNLKRSKFC-OH; N-terminus and C-terminus assumed): in series [1], the MHC10 came to 25 µM. This molecule yielded an MCC10 in series [2] of 30 µM. Besides, in series [3], the cytotoxicity at 12.5 μM came to 0%, the cytotoxicity at 25 μM was 0% and the cytotoxicity at 50 μM stood at 59%. For the same molecule, the “MIC (μM) for non-amidated Peptide” value in series [4] worked out at 5 µM.

The molecule `CC(C)C[C@H](NC(=O)[C@H](CC(N)=O)NC(=O)[C@H](CCCCN)NC(=O)[C@@H]1CCCN1C(=O)[C@H](CC(C)C)NC(=O)[C@H](CS)NC(=O)[C@H](Cc1ccccc1)NC(=O)[C@H](Cc1ccccc1)NC(=O)CNC(=O)[C@@H](NC(=O)[C@H](CCCNC(=N)N)NC(=O)CCCC[C@@H]1SC[C@@H]2NC(=O)N[C@@H]21)[C@@H](C)O)C(=O)N[C@@H](CCCCN)C(=O)N[C@@H](CCCNC(=N)N)C(=O)N[C@@H](CO)C(=O)N[C@@H](CCCCN)C(=O)N[C@@H](Cc1ccccc1)C(=O)N[C@@H](CS)C(=O)N[C@@H](C)C(=O)N[C@@H](Cc1ccccc1)C(=O)N[C@@H](CC(C)C)C(=O)N[C@@H](CC(=O)O)C(=O)N1CCC[C@H]1C(=O)N[C@H](C(=O)O)[C@@H](C)O` [Ac323] (Biotin-RTGFFCLPKNLKRSKFCAFLDPT-OH; N-terminus and C-terminus assumed) had an MHC10 in series [1] of 30 µM. Further, the MCC10 in series [2] was 13 µM. Moreover, in series [3], the cytotoxicity at 12.5 μM was determined as 9%, the cytotoxicity at 25 μM is 31% and the cytotoxicity at 50 μM is 49%. In series [4], the “MIC (μM) for non-amidated Peptide” value was 20 µM.

In series [1], `CC(C)C[C@H](NC(=O)[C@H](Cc1ccccc1)NC(=O)CNC(=O)[C@H](CO)NC(=O)[C@@H]1CCCN1C(=O)[C@H](Cc1c[nH]c2ccccc12)NC(=O)[C@@H](NC(=O)[C@@H]1CCCN1C(=O)[C@H](CCCNC(=N)N)NC(=O)[C@@H](NC(=O)[C@H](C)NC(=O)[C@H](CS)NC(=O)[C@H](CCCNC(=N)N)NC(=O)[C@H](CO)NC(=O)[C@H](CO)NC(=O)[C@H](C)NC(=O)[C@H](C)NC(=O)[C@H](CCCNC(=N)N)NC(=O)[C@H](CO)NC(=O)[C@H](CO)NC(=O)[C@H](Cc1c[nH]cn1)NC(=O)[C@@H]1CCCN1C(=O)CCCC[C@@H]1SC[C@@H]2NC(=O)N[C@@H]21)C(C)C)C(C)C)C(=O)N[C@@H](CCCNC(=N)N)C(=O)O` [Ac327] (Biotin-PHSSRAASSRCAVRPVWPSGFLR-OH) displayed an MHC10 of 30 µM. The MCC10 in series [2] came to 8 µM. In addition, in series [3], the cytotoxicity at 12.5 μM is 20%, the cytotoxicity at 25 μM was determined as 31% and the cytotoxicity at 50 μM stood at 1%. Also, the “MIC (μM) for non-amidated Peptide” value in series [4] amounted to 20 µM.

`CC(C)C[C@H](NC(=O)[C@H](Cc1ccccc1)NC(=O)CNC(=O)[C@H](CO)NC(=O)[C@@H]1CCCN1C(=O)[C@H](Cc1c[nH]c2ccccc12)NC(=O)[C@@H](NC(=O)[C@@H]1CCCN1C(=O)[C@H](CCCNC(=N)N)NC(=O)[C@@H](NC(=O)[C@H](C)NC(=O)[C@H](CS)NC(=O)[C@H](CCCNC(=N)N)NC(=O)[C@H](CO)NC(=O)[C@H](CO)NC(=O)CCCC[C@@H]1SC[C@@H]2NC(=O)N[C@@H]21)C(C)C)C(C)C)C(=O)N[C@@H](CCCNC(=N)N)C(=O)N[C@@H](CCCNC(=N)N)C(=O)N[C@@H](CC(C)C)C(=O)N[C@@H](CO)C(=O)N[C@@H](CC(=O)O)C(=O)N[C@@H](CCCNC(=N)N)C(=O)N[C@@H](CS)C(=O)N[C@@H](CS)C(=O)O` [Ac328] (Biotin-SSRCAVRPVWPSGFLRRLSDRCC-OH; N-terminus and C-terminus assumed) yielded an MHC10 in series [1] of 20 µM. This molecule also returned an MCC10 in series [2] of 20 µM. In series [3], the cytotoxicity at 12.5 μM was found to be 1%, the cytotoxicity at 25 μM was 17% and the cytotoxicity at 50 μM amounted to 32%. Moreover, the “MIC (μM) for non-amidated Peptide” value in series [4] came out at 12.5 µM.

In series [1], `CC(C)C[C@H](NC(=O)[C@H](CC(=O)O)NC(=O)[C@H](CO)NC(=O)CCCC[C@@H]1SC[C@@H]2NC(=O)N[C@@H]21)C(=O)NCC(=O)N[C@@H](CCCCN)C(=O)N[C@@H](CO)C(=O)NCC(=O)N[C@@H](C)C(=O)NCC(=O)N[C@@H](Cc1c[nH]c2ccccc12)C(=O)N[C@@H](CCCNC(=N)N)C(=O)N[C@@H](Cc1c[nH]c2ccccc12)C(=O)N[C@@H](CCCNC(=N)N)C(=O)N[C@@H](C)C(=O)N[C@@H](CS)C(=O)N[C@@H](CC(N)=O)C(=O)N[C@H](C(=O)N[C@@H](CC(C)C)C(=O)N[C@@H](CO)C(=O)N[C@@H](CCCCN)C(=O)N[C@@H](CS)C(=O)N[C@@H](CCCNC(=N)N)C(=O)NCC(=O)O)[C@@H](C)O` [Ac378] (Biotin-SDLGKSGAGWRWRACNTLSKCRG-OH; N-terminus and C-terminus assumed) showed an MHC10 of 50 µM. This molecule gave an MCC10 in series [2] of 30 µM. In series [3], this molecule had a cytotoxicity at 12.5 μM of 0%, a cytotoxicity at 25 μM of 0% and a cytotoxicity at 50 μM of 35%. Also, the “MIC (μM) for non-amidated Peptide” value in series [4] worked out at 12.5 µM.

The molecule `CC[C@H](C)[C@H](NC(=O)[C@H](Cc1c[nH]c2ccccc12)NC(=O)[C@H](CCCNC(=N)N)NC(=O)[C@H](CO)NC(=O)[C@H](CCCNC(=N)N)NC(=O)[C@H](CCCNC(=N)N)NC(=O)[C@H](CO)NC(=O)[C@H](CCCNC(=N)N)NC(=O)[C@H](CCCNC(=N)N)NC(=O)[C@H](Cc1ccc(O)cc1)NC(=O)CNC(=O)CCCC[C@@H]1SC[C@@H]2NC(=O)N[C@@H]21)C(=O)N[C@@H](CS)C(=O)N[C@@H](CO)C(=O)N[C@@H](CCSC)C(=O)N[C@@H](C)C(=O)N[C@@H](CCCNC(=N)N)C(=O)N[C@@H](CCCNC(=N)N)C(=O)N[C@@H](CO)C(=O)N[C@@H](CCCNC(=N)N)C(=O)N[C@@H](CCCNC(=N)N)C(=O)N[C@@H](CCCNC(=N)N)C(=O)N[C@@H](CCCNC(=N)N)C(=O)N1CCC[C@H]1C(=O)O` [Ac389] (Biotin-GYRRSRRSRWICSMARRSRRRRP-OH) came in with an MHC10 in series [1] of 50 µM. The molecule further showed an MCC10 in series [2] of 15 µM. In series [3], the cytotoxicity at 12.5 μM came out at 0%, the cytotoxicity at 25 μM is 34% and the cytotoxicity at 50 μM is 95%. For the same molecule, the “MIC (μM) for non-amidated Peptide” value in series [4] was found to be 12.5 µM.
